Data taken from the Biogen ADME set (Fang et al. 2023).
Converted amounts (≈) assume the structure as drawn.

Conditions: for aqueous solubility: pH 6.8

SMILES	MDR1-MDCK efflux ratio	fraction unbound, human plasma	intrinsic clearance, human liver microsomes	intrinsic clearance, rat liver microsomes	aqueous solubility	fraction unbound, rat plasma
C[C@H]1CN(C2COC2)CCN1c1ccc(Nc2cc(-c3ccnc(N4CCn5c(cc6c5CC(C)(C)C6)C4=O)c3CO)cn(C)c2=O)nc1	23.1	0.162	14.8 mL/min/kg	≤ 10.7 mL/min/kg	46 µg/mL (≈ 69.3 µM)	–
COc1nc2sc(C(=O)NC3CC3)c(N)c2c(C)c1Cl	–	0.0176	9.77 mL/min/kg	133 mL/min/kg	–	0.0283
COc1ccccc1N1CCN(c2nc(-c3ccc(C)cc3)cc(=O)[nH]2)CC1	1.75	–	–	–	0.2 µg/mL (≈ 0.531 µM)	–
Cn1cc(Br)cc1C(=O)N1CCc2nn[nH]c2C1	–	–	≤ 4.74 mL/min/kg	43.8 mL/min/kg	–	–
O=C(Nc1ccc(C(F)(F)F)cc1)c1ccccn1	–	–	31.9 mL/min/kg	165 mL/min/kg	–	–
NCCOc1cccc(CC(=O)N2CCCN(C(=O)C3CCC3)CC2)c1	5.51	–	≤ 4.74 mL/min/kg	≤ 10.7 mL/min/kg	–	–
Cc1cccc(COc2cccc(/C=C3\C(=O)NN(c4ccccc4)C3=O)c2)c1	–	–	66.3 mL/min/kg	294 mL/min/kg	5.16 µg/mL (≈ 13.4 µM)	–
N#Cc1ccc2nc([C@H]3CCN(C4CCC4)C3)[nH]c2c1	4.41	–	7.26 mL/min/kg	68.4 mL/min/kg	50.2 µg/mL (≈ 188 µM)	–
O=C(NCCNC(=O)c1cc(-c2ccccc2)nc2ccccc12)c1ccco1	10	–	58.6 mL/min/kg	461 mL/min/kg	37.6 µg/mL (≈ 97.7 µM)	–
c1ccc(C(c2ccccc2)c2noc(Cn3cnc(C4CC4)n3)n2)cc1	1.14	–	38 mL/min/kg	1510 mL/min/kg	26.3 µg/mL (≈ 73.6 µM)	–
CCn1c(=O)n(CC)c2cc(N)ccc21	0.814	–	≤ 4.74 mL/min/kg	20 mL/min/kg	37.5 µg/mL (≈ 183 µM)	–
COC(c1ccccc1)(c1ccccc1)[C@H](Oc1nc(C)cc(C)n1)C(=O)O	38.3	–	≤ 4.74 mL/min/kg	≤ 10.7 mL/min/kg	–	–
Cn1ncc2c(Oc3cccc(Oc4ccccn4)c3)ncnc21	0.672	–	10.1 mL/min/kg	369 mL/min/kg	39.8 µg/mL (≈ 125 µM)	–
Cc1c(C(=O)N2CCC(C(=O)Nc3ccc4c(c3)OCO4)CC2)oc2c(F)cccc12	0.872	–	58.3 mL/min/kg	545 mL/min/kg	11 µg/mL (≈ 26 µM)	–
CCCn1ncc(CN2CCC(c3cc4cccnc4[nH]3)CC2)c1C	8.86	–	41.8 mL/min/kg	201 mL/min/kg	–	–
O=C(Nc1ccc(S(=O)(=O)Nc2ccnn2-c2ccccc2)cc1)c1ccco1	48.8	–	8.1 mL/min/kg	102 mL/min/kg	63.4 µg/mL (≈ 155 µM)	–
Cc1ccc(S(=O)(=O)N2CCCc3ccc(NS(=O)(=O)c4ccc(F)cc4C)cc32)cc1	–	–	186 mL/min/kg	2420 mL/min/kg	–	–
CC1CCN(Cc2ccc(NC(=O)c3ccccn3)cc2)CC1	0.675	–	≤ 4.74 mL/min/kg	16.2 mL/min/kg	40.8 µg/mL (≈ 132 µM)	–
C#CCN1CCC[C@H]1C(=O)Nc1cnn(-c2ncccn2)c1	3.95	–	≤ 4.74 mL/min/kg	83.4 mL/min/kg	45.1 µg/mL (≈ 152 µM)	–

SMILES	MDR1-MDCK efflux ratio	fraction unbound, human plasma	intrinsic clearance, human liver microsomes	intrinsic clearance, rat liver microsomes	aqueous solubility	fraction unbound, rat plasma
O=C(NCc1nncn1-c1ccccc1)C1CCCC1	20.8	–	≤ 4.74 mL/min/kg	12.2 mL/min/kg	43.3 µg/mL (≈ 160 µM)	–
O=C1NCCN(C(=O)c2ccc3nccn3c2)C1c1ccccc1C(F)(F)F (centres undefined)	7.15	0.71	≤ 4.74 mL/min/kg	37.5 mL/min/kg	69.6 µg/mL (≈ 179 µM)	0.633
O=C(NCCCNC(=O)c1cc2ccccc2[nH]1)c1ccc2c(c1)OCCO2	6.74	–	19.3 mL/min/kg	283 mL/min/kg	40.5 µg/mL (≈ 107 µM)	–
Cc1nccc(-c2cccc(NCC(=O)NCC(=O)N3CCCC3)c2)n1	43.4	–	≤ 4.74 mL/min/kg	16.2 mL/min/kg	69.5 µg/mL (≈ 197 µM)	–
CCOc1cc(N(C)CC2CCN(C)CC2)ncn1	1.55	–	20.1 mL/min/kg	561 mL/min/kg	–	–
O=C(CN1CCCC(c2cccc(Cc3cccc(F)c3)n2)C1)N1CCCC1 (centres undefined)	–	0.115	76.2 mL/min/kg	1140 mL/min/kg	–	0.0899
CC(C)N(C)S(=O)(=O)N1CCC(CNC(=O)CCCn2cccn2)CC1	57.9	–	16.3 mL/min/kg	285 mL/min/kg	–	–
Cc1nc2cc(C(=O)NC34CCCC3NCC4)ccc2c(=O)[nH]1 (centres undefined)	0.754	0.735	≤ 4.74 mL/min/kg	–	–	–
CCN(c1ccc(C(C)C)cc1)S(=O)(=O)c1ccccc1	0.516	–	–	–	0.65 µg/mL (≈ 2.14 µM)	–
Cc1ccc(S(=O)(=O)Nc2ccc3c(c2)c(C(=O)C(F)(F)F)cn3CC(=O)N[C@@H](CC(C)C)C(=O)O)cc1	20	–	–	–	80.4 µg/mL (≈ 145 µM)	–
O=C(Nc1nc2ccccc2[nH]1)C1CCCCC1	0.721	–	15.5 mL/min/kg	189 mL/min/kg	2.44 µg/mL (≈ 10 µM)	–
O=C(Nc1ccccc1-n1ccnc1)c1cccs1	0.74	–	11 mL/min/kg	39.2 mL/min/kg	77.2 µg/mL (≈ 287 µM)	–
CCc1nnc(Nc2cccc(C3CCCN(CC(=O)N4CCCC4)C3)n2)s1 (centres undefined)	35	–	48.7 mL/min/kg	186 mL/min/kg	53.5 µg/mL (≈ 134 µM)	–
Cn1cc(CCNc2cncc(Br)c2)cn1	0.655	–	12 mL/min/kg	110 mL/min/kg	40.4 µg/mL (≈ 144 µM)	–
Cn1nc(N)c2ccc(Br)cc21	0.72	–	24 mL/min/kg	94.8 mL/min/kg	–	–
CC(C)n1cnnc1SCOCc1ccccc1	0.711	–	≤ 4.74 mL/min/kg	219 mL/min/kg	–	–
O=C(NCCc1ccc(F)cc1)n1ccnc1	–	–	39.7 mL/min/kg	95.6 mL/min/kg	–	–
O=C(NCc1cccc(F)c1)c1[nH]nnc1-c1ccccc1	1.37	–	≤ 4.74 mL/min/kg	17.4 mL/min/kg	20.9 µg/mL (≈ 70.7 µM)	–
COc1ccccc1-c1ccc(CC2(C(=O)NC3CC3)CCOCC2)cc1	1.89	–	81.4 mL/min/kg	2150 mL/min/kg	41.8 µg/mL (≈ 114 µM)	–

Continued, values first:

MDR1-MDCK efflux ratio	fraction unbound, human plasma	intrinsic clearance, human liver microsomes	intrinsic clearance, rat liver microsomes	aqueous solubility	fraction unbound, rat plasma	SMILES
9.82	–	17.7 mL/min/kg	125 mL/min/kg	9.86 µg/mL (≈ 22 µM)	–	COc1ccc(CNC(=O)c2cc(-c3cncc(C)c3)ncc2-c2nccs2)nc1OC
0.484	–	182 mL/min/kg	985 mL/min/kg	8.4 µg/mL (≈ 23.2 µM)	–	COc1ccc2nc(C)c(C(=O)Nc3ccccc3N3CCCC3)cc2c1
0.46	–	102 mL/min/kg	3010 mL/min/kg	–	–	COc1ccc(C(=O)c2ccc(C)cc2)c(OC)c1
0.791	–	164 mL/min/kg	1300 mL/min/kg	29.9 µg/mL (≈ 79.3 µM)	–	O=C(c1ccccn1)N1CCCC(c2cccc(-c3cccc(Cl)c3)n2)C1 (centres undefined)
17.5	–	5.13 mL/min/kg	312 mL/min/kg	69.8 µg/mL (≈ 196 µM)	–	CCN(CC)CCCNc1ncc(-c2cc(C)no2)c(-c2ccco2)n1
0.752	–	–	–	35.9 µg/mL (≈ 146 µM)	–	Cc1ccc(-c2csc(CC(N)=O)n2)cc1C
0.682	–	–	–	0.26 µg/mL (≈ 0.715 µM)	–	CCCCOc1ccccc1-c1cc(C(=O)NCc2ccccc2C)[nH]n1
15.1	–	13.3 mL/min/kg	80.3 mL/min/kg	18.7 µg/mL (≈ 53.8 µM)	–	CCC(=O)NCCNC(=O)c1cc(-c2ccccc2)nc2ccccc12
11.2	–	143 mL/min/kg	656 mL/min/kg	39.3 µg/mL (≈ 119 µM)	–	CCc1ccc2nc(C)cc(C(=O)N3CC(c4cccnc4)C3)c2c1
0.886	–	325 mL/min/kg	1410 mL/min/kg	–	–	Cc1cccc2cc(C(=O)NCCCn3nnc4ccccc43)n(C)c12
1.62	–	≤ 4.74 mL/min/kg	31.6 mL/min/kg	–	–	CCN(CC)CC(=O)Nc1ccc(Oc2ccc(C)nn2)cc1
35.5	–	34.8 mL/min/kg	874 mL/min/kg	–	–	CN(C)C1(CNC(=O)N2CCC=C(c3ccccc3)C2)CCOCC1
–	–	≤ 4.74 mL/min/kg	83.9 mL/min/kg	40.5 µg/mL (≈ 147 µM)	–	Cc1cc(F)ccc1C(=O)NCc1ccc(O)c(O)c1
1.14	–	59.9 mL/min/kg	4180 mL/min/kg	–	–	COCC1(C(=O)N(C)Cc2ccc3ccccc3n2)CCC1
–	–	7.6 mL/min/kg	17 mL/min/kg	–	–	CC(C)Cc1ccc(-c2nc(-c3ccc(CN4CC(C(=O)O)C4)cc3)no2)cc1
13.5	–	24.2 mL/min/kg	1110 mL/min/kg	9.3 µg/mL (≈ 24.6 µM)	–	Cc1nc2cc(NC(=O)CCc3c(C)nc4c(c(C)nn4C)c3C)ccc2o1
–	–	–	–	2.41 µg/mL (≈ 7.51 µM)	–	CN(C)C(=O)Cc1nc(-c2cc3cc(Cl)ccc3o2)cs1
0.884	–	≤ 4.74 mL/min/kg	23.1 mL/min/kg	34.9 µg/mL (≈ 149 µM)	–	Cc1cc(C)nc(N(C)CC(=O)NC2CC2)n1
